Where only a bound is given, the exact number is not on record here.

Experiment [1] deals with BTK (Homo sapiens (Human), UniProt Q06187). The experiment in a line: KdELECT assay for binding affinity to BTK. The gist of the method: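 Competition binding of test compound against bead-immobilized biotinylated ligand; kinase as T7 phage fusion or HEK-293-expressed DNA-tagged protein. 11-point 3-fold dilution, 0.9% DMSO final, 1 h room temperature with shaking. Bound kinase eluted with 0.5 μM non-biotinylated ligand and quantified by qPCR; Kd derived.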
BTK, sequence (Q06187 whole entry, the tested form may be a part): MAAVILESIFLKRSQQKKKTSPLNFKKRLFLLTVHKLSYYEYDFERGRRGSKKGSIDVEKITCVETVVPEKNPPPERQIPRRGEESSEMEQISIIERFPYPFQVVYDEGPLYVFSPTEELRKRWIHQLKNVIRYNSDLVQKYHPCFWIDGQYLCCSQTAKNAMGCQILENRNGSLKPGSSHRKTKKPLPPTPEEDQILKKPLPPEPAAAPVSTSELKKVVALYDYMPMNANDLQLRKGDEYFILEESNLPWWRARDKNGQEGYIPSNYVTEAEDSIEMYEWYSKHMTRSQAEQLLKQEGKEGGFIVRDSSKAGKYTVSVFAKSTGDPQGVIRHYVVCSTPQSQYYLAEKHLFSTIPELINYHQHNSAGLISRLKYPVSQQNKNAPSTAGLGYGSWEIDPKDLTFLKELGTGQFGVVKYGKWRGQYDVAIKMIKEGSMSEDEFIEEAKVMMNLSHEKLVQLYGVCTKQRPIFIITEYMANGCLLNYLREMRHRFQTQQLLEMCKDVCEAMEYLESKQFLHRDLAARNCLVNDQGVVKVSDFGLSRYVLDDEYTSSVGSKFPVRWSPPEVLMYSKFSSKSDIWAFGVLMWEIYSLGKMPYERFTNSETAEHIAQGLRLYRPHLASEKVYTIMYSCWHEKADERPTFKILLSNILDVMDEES

Experiment [2] deals with mTOR (Homo sapiens (Human), UniProt P42345). The experiment in a line: KdELECT assay for binding affinity to mTOR. The protocol: (§1) Compounds were tested using a KdELECT assay. Kinase-tagged T7 phage strains were prepared in an E. coli host derived from the BL21 strain. E. coli were grown to log-phase and infected with T7 phage and incubated with shaking at 32° C. until lysis. The lysates were centrifuged and filtered to remove cell debris. The remaining kinases were produced in HEK-293 cells and subsequently tagged with DNA for qPCR detection. Streptavidin-coated magnetic beads were treated with biotinylated small molecule ligands for 30 minutes at room temperature to generate affinity resins for kinase assays. The liganded beads were blocked with excess biotin and washed with blocking buffer (SeaBlock (Pierce), 1% BSA, 0.05% Tween 20, 1 mM DTT) to remove unbound ligand and to reduce non-specific binding. Binding reactions were assembled by combining kinases, liganded affinity beads, and test compounds in 1×binding buffer (20% SeaBlock, 0.17×PBS, 0.05% Tween 20, 6 mM DTT). Test compounds were prepared as 111X stocks in 100% DMSO. Kd values were determined using an 11-point 3-fold compound dilution series with three DMSO control points. All compounds for Kd measurements are distributed by acoustic transfer (non-contact dispensing) in 100% DMSO. The compounds were then diluted directly into the assays such that the final concentration of DMSO was 0.9%. All reactions performed in polypropylene 384-well plate. Each was a final volume of 0.02 mL. The assay plates were incubated at room temperature with shaking for 1 hour and the affinity beads were washed with wash buffer (1×PBS, 0.05% Tween 20). The beads were then re-suspended in elution buffer (1×PBS, 0.05% Tween 20, 0.5 μM nonbiotinylated affinity ligand) and incubated at room temperature with shaking for 30 minutes. The kinase concentration in the eluates was measured by qPCR.

Experiment [3] addresses BRD4-BD1 (Homo sapiens (Human), UniProt O60885). The experiment in a line: bromoKdELECT assay for binding affinity to BRD4-BD1. The protocol:
(§2) Compounds were tested using a bromoKdELECT assay. T7 phage strains displaying bromodomains were grown in parallel in 24-well blocks in an E. coli host derived from the BL21 strain. E. coli were grown to log-phase and infected with T7 phage from a frozen stock (multiplicity of infection=0.4) and incubated with shaking at 32° C. until lysis (90-150 minutes). The lysates were centrifuged (5,000×g) and filtered (0.2 μm) to remove cell debris. Streptavidin-coated magnetic beads were treated with biotinylated small molecule or acetylated peptide ligands for 30 minutes at room temperature to generate affinity resins for bromodomain assays. The liganded beads were blocked with excess biotin and washed with blocking buffer (SeaBlock (Pierce), 1% BSA, 0.05% Tween 20, 1 mM DTT) to remove unbound ligand and to reduce nonspecific phage binding. Binding reactions were assembled by combining bromodomains, liganded affinity beads, and test compounds in 1×binding buffer (17% SeaBlock, 0.33×PBS, 0.04% Tween 20, 0.02% BSA, 0.004% Sodium azide, 7.4 mM DTT). Test compounds were prepared as 1000X stocks in 100% DMSO. Kds were determined using an 11-point 3-fold compound dilution series with one DMSO control point. All compounds for Kd measurements are distributed by acoustic transfer (non-contact dispensing) in 100% DMSO. The compounds were then diluted directly into the assays such that the final concentration of DMSO was 0.09%. All reactions performed in polypropylene 384-well plates. Each was a final volume of 0.02 ml. The assay plates were incubated at room temperature with shaking for 1 hour and the affinity beads were washed with wash buffer (1×PBS, 0.05% Tween 20). The beads were then resuspended in elution buffer (1×PBS, 0.05% Tween 20, 2 μM non-biotinylated affinity ligand) and incubated at room temperature with shaking for 30 minutes. The bromodomain concentration in the eluates was measured by qPCR.

For experiment [4], the target named is BRD4-BD2 (Homo sapiens (Human), UniProt O60885). Description: bromoKdELECT assay for binding affinity to BRD4-BD2. The protocol:
as §2

Experiment [5] relates to HEK293 cells. Description: Cellular growth inhibition assay (CellTiter-Glo), HEK293 cells. It counts as cell-based. The note with it: Homo sapiens, 72 h; HEK293 cells, three days of compound treatment, CellTiter-Glo 2.0; read-out: CTG HEK293 GI50. The gist of the method: (§3)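 HeLa or HEK293 cells in DMEM with 10% FBS exposed to titrated compound for three days at 37 °C, 5% CO2, 24 h after seeding. Viability by CellTiter-Glo 2.0 luminescence, normalized to DMSO Day 0 and Day 3 readings; four-parameter fit gives GI50.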

The test system of experiment [6] is HeLa cells. Description: Cellular growth inhibition assay (CellTiter-Glo), HeLa cells. The format is cell-based. The note with it: Homo sapiens, 72 h; HeLa cells, three days of compound treatment, CellTiter-Glo 2.0; read-out: CTG HELA GI50. The gist of the method:
as §3
In general terms: In ATP-based viability assays light output follows the ATP content of the culture.

The target in experiment [7] is CDK9 (Homo sapiens (Human), UniProt P50750). The experiment in a line: KdELECT assay for binding affinity to CDK9. The protocol: as §1, with “KdELECT.” for “KdELECT assay.”
CDK9, sequence (P50750 whole entry): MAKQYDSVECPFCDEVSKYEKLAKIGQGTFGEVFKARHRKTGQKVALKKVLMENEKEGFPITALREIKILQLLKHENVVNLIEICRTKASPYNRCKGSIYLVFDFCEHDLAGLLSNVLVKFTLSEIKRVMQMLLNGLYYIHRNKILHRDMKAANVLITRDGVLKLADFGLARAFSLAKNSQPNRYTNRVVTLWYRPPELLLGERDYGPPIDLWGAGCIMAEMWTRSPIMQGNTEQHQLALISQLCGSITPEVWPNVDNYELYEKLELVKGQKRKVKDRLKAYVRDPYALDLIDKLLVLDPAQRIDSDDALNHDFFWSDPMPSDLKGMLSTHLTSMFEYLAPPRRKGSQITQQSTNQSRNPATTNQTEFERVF

As for `C[C@@H]1COCCN1c1nc(N2CCOC[C@H]2C)c2ccc(-c3cccc(C(=O)NCCOCCOCCOCCOCCOCCOCCOCCOC/C=C/C(=O)N4CCC[C@@H](n5nc(-c6ccc(Oc7ccccc7)cc6)c6c(N)ncnc65)C4)c3)nc2n1` [Compound I-5, N-[2-[2-[2-[2-[2-[2-[2-[2-[(E)-4-[(3R)-3-[4-amino-3-(4-phenoxyphenyl)pyrazolo[3,4-d]pyrimidin-1-yl]-1-piperidyl]-4-oxo-but-2-enoxy]ethoxy]ethoxy]ethoxy]ethoxy]ethoxy]ethoxy]ethoxy]ethyl]-3-[2,4-bis[(3R)-3-methylmorpholin-4-yl]pyrido[2,3-d]pyrimidin-7-yl]benzamide], the dissociation constant Kd – broadly, the constant that tells how readily two partners part at equilibrium – in experiment [1] was under 50 nM; in experiment [2] it was 50 to 500 nM.

Take `Cc1sc2c(c1C)C(c1ccc(Cl)cc1)=N[C@@H](CC(=O)NCCOCCOCCOc1ccc(C(=O)NC3C(C)(C)C(Oc4ccc(C#N)c(Cl)c4)C3(C)C)cc1)c1nnc(C)n1-2` (stereo partly drawn) [Compound I-32]: the dissociation constant Kd in experiment [3] is 500 to 2500 nM; in experiment [4] it was 50 to 500 nM.

With `C[C@@H]1COCCN1c1nc(N2CCOC[C@H]2C)c2ccc(-c3cccc(C(=O)NCCOCCOCCOCCOCCOc4ccc(C(=O)NC5C(C)(C)C(Oc6ccc(C#N)c(Cl)c6)C5(C)C)cc4)c3)nc2n1` (stereo partly drawn) [Compound I-10], the dissociation constant Kd in experiment [2] lay in the range of 50 to 500 nM.

Take `C[C@@H]1COCCN1c1nc(N2CCOC[C@H]2C)c2ccc(-c3cccc(C(=O)NCCOCCOCCOCCOC/C=C/C(=O)N4CCC[C@@H](n5nc(-c6ccc(Oc7ccccc7)cc6)c6c(N)ncnc65)C4)c3)nc2n1` [Compound I-3, N-[2-[2-[2-[2-[(E)-4-[(3R)-3-[4-amino-3-(4-phenoxyphenyl)pyrazolo[3,4-d]pyrimidin-1-yl]-1-piperidyl]-4-oxo-but-2-enoxy]ethoxy]ethoxy]ethoxy]ethyl]-3-[2,4-bis[(3R)-3-methylmorpholin-4-yl]pyrido[2,3-d]pyrimidin-7-yl]benzamide]: the Kd in experiment [1] and in experiment [2] was 50 to 500 nM in each case.

Turning to `Cc1c(NC(=O)c2ccc(C3CC3)cc2F)cc(F)cc1-c1ncnc(N)c1OCCN(C)C(=O)/C=C/CN(C)CCCN1CCN(CCCNS(=O)(=O)c2ccc(Nc3ncc(Br)c(Nc4cccc(F)c4C(N)=O)n3)cc2)CC1` [Compound I-79, 2-[[2-[4-[3-[4-[3-[[(E)-4-[2-[4-amino-6-[3-[(4-cyclopropyl-2-fluoro-benzoyl)amino]-5-fluoro-2-methyl-phenyl]pyrimidin-5-yl]oxyethyl-methyl-amino]-4-oxo-but-2-enyl]-methyl-amino]propyl]piperazin-1-yl]propylsulfamoyl]anilino]-5-bromo-pyrimidin-4-yl]amino]-6-fluoro-benzamide], the GI50 (commonly the concentration at which growth is held to half of that of the control) in experiment [5] is over 5000 nM; in experiment [6], 1500 to 5000 nM. Moreover, the Kd was under 50 nM in experiment [1] and 50 to 500 nM in experiment [7].

Consider `C[C@@H]1COCCN1c1nc(N2CCOC[C@H]2C)c2ccc(-c3cccc(C(=O)NCCCCCCCCOc4ccc(C(=O)NC5C(C)(C)C(Oc6ccc(C#N)c(Cl)c6)C5(C)C)cc4)c3)nc2n1` (stereo partly drawn) [Compound I-8, 3-[2,4-bis[(3R)-3-methylmorpholin-4-yl]pyrido[2,3-d]pyrimidin-7-yl]-N-[8-[4-[[3-(3-chloro-4-cyano-phenoxy)-2,2,4,4-tetramethyl-cyclobutyl]carbamoyl]phenoxy]octyl]benzamide], for which the equilibrium dissociation constant (Kd) in experiment [1] was 50 to 500 nM; in experiment [2], over 2500 nM.

As to `C[C@@H]1COCCN1c1nc(N2CCOC[C@H]2C)c2ccc(-c3cccc(C(=O)NCCCCCCCC/C=C/C(=O)N4CCC[C@@H](n5nc(-c6ccc(Oc7ccccc7)cc6)c6c(N)ncnc65)C4)c3)nc2n1` [Compound I-7, N—[(E)-11-[(3R)-3-[4-amino-3-(4-phenoxyphenyl)pyrazolo[3,4-d]pyrimidin-1-yl]-1-piperidyl]-11-oxo-undec-9-enyl]-3-[2,4-bis[(3R)-3-methylmorpholin-4-yl]pyrido[2,3-d]pyrimidin-7-yl]benzamide], the equilibrium dissociation constant (Kd) in experiment [1] and in experiment [2] was 50 to 500 nM each time.

In experiment [2], `Nc1nc2cc(-c3nn(CCCCC(=O)NCCCCCCCC/C=C/C(=O)N4CCC[C@@H](n5nc(-c6ccc(Oc7ccccc7)cc6)c6c(N)ncnc65)C4)c4ncnc(N)c34)ccc2o1` [Compound I-2, 5-[4-amino-3-(2-amino-1,3-benzoxazol-5-yl)pyrazolo[3,4-d]pyrimidin-1-yl]-N—[(E)-11-[(3R)-3-[4-amino-3-(4-phenoxyphenyl)pyrazolo[3,4-d]pyrimidin-1-yl]-1-piperidyl]-11-oxo-undec-9-enyl]pentanamide] gave a Kd of 500 to 2500 nM.

Compound `C[C@@H]1COCCN1c1nc(N2CCOC[C@H]2C)c2ccc(-c3cccc(C(=O)NCCOCCOCCOCCOCCOCCOCCOCCOCCOc4ccc(C(=O)N[C@H]5C(C)(C)[C@H](Oc6ccc(C#N)c(Cl)c6)C5(C)C)cc4)c3)nc2n1` [Compound I-9, N-[2-[2-[2-[2-[2-[2-[2-[2-[2-[4-[[3-(3-chloro-4-cyano-phenoxy)-2,2,4,4-tetramethyl-cyclobutyl]carbamoyl]phenoxy]ethoxy]ethoxy]ethoxy]ethoxy]ethoxy]ethoxy]ethoxy]ethoxy]ethyl]-3-[2-[(3R)-3-methylmorpholin-4-yl]-4-(3-methylmorpholin-4-yl)pyrido[2,3-d]pyrimidin-7-yl]benzamide] had a Kd in experiment [2] of under 50 nM.

For the compound `CCc1cnn2c(NCc3ccc(OCCOCCOCCOCCOCCOC/C=C/C(=O)N4CCC[C@@H](n5nc(-c6ccc(Oc7ccccc7)cc6)c6c(N)ncnc65)C4)nc3)cc(N3CCCC[C@H]3CCO)nc12` [Compound I-42], the results for the GI50 in experiment [5] and in experiment [6] were 500 to 1500 nM and under 500 nM, respectively. The Kd is under 50 nM in experiment [1] and 50 to 500 nM in experiment [7].

(Values after patent US20250136619A1, “HETEROBIFUNCTIONAL COMPOUNDS AND THEIR USE IN TREATING DISEASE” (HALDA THERAPEUTICS OPCO, INC., priority 2021, published 2025).)
